For the assay, the target named is T1, h-11βHSD1 (Homo sapiens, UniProt P28845).
T1 construct: made in house; host or cells: yeast
Nature of the assay: 11βHSD1 enzyme assay (SPA). Type of assay: biochemical. The following applies: extract of yeast transformed with h-11βHSD1; 120 nM 3H-cortisone; 60 min at 30° C. How it is done:
11βHSD1 Enzyme Assay Materials ^3H-cortisone and anti-rabbit Ig coated scintillation proximity assay (SPA) beads were purchased from Amersham Pharmacia Biotech, β-NADPH was from Sigma and rabbit anti-cortisol antibodies were from Fitzgerald. […] The test compounds were dissolved in DMSO (10 mM). All dilutions were performed in a buffer containing 50 mM TRIS-HCl (Sigma Chemical Co), 4 mM EDTA (Sigma Chemical Co), 0.1% BSA (Sigma Chemical Co), 0.01% Tween-20 (Sigma Chemical Co) and 0.005% bacitracin (Novo Nordisk A/S), pH=7.4. Optiplate 96 wells plates were supplied by Packard. The amount of ^3H-cortisol bound to the SPA beads was measured on TopCount NXT, Packard. […] The reaction was initiated by mixing the different components and was allowed to proceed under shaking for 60 min at 30° C. The reaction was stopped be the addition of 10 fold excess of a stopping buffer containing 500 μM carbenoxolone and 1 μM cortisone. Data was analysed using GraphPad Prism software.

The record followed here is patent US20100168083A1, “ADAMANTANE DERIVATIVES FOR THE TREATMENT OF THE METABOLIC SYNDROME” (priority 2006, published 2010).

SMILES strings stand for the structures.

T1 sequence (P28845 whole entry): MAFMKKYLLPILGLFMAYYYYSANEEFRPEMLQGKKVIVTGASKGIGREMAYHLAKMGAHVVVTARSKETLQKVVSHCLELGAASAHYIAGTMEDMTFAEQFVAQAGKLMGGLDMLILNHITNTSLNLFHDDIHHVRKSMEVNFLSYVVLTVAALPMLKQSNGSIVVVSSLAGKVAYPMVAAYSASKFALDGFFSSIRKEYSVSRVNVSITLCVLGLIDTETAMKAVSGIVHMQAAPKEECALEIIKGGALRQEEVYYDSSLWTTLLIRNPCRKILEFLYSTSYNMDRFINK

In turn, `O=C(N1CCC(COc2ccccn2)CC1)[C@]12C[C@H]3C[C@H](C[C@H](C3)C1)C2` [Example 6] showed an IC50 of 835 nM.
To `O=C(O)c1ccc(OCCC2CCN(C(=O)[C@]34C[C@H]5C[C@H](C[C@H](C5)C3)C4)CC2)cc1` [Example 3, 4-{2-[1-(Tricyclo[3.3.1.1.3.7]decanane-1-carbonyl)-piperidin-4-yl]-ethoxy}-benzoic acid] belongs 1320 nM.
